In publication PMC6396024, “Artemin and an Artemin-Derived Peptide, Artefin, Induce Neuronal Survival, and Differentiation Through Ret and NCAM” (Frontiers in Molecular Neuroscience, 2019):
One block for each molecule: values may come before it. Ends that are not written are not given here.

How the values were obtained:
[1] = system: FGFR; cerebellar granule neurons (CGNs); test: Neurite outgrowth in CGNs with FGFR-inhibitor SU5402; format: cell-based, Wistar rat; conditions: p < 0.01
Protocol: (§1) Cerebellar granule neurons (CGNs) were prepared from 7-day-old Wistar rat pups (Charles River Laboratories, Sulzfeld, Germany) as previously described ([Schousboe et al., 1989]). Briefly, pups were decapitated, and the cerebellum was removed and cleared from blood vessels and meninges in ice-cold modified Krebs-Ringer buffer. The cerebellum was dissociated by chopping and trypsinization. Cells were washed in Krebs-Ringer buffer containing DNAse I (Sigma, St. Louis, MO, United States) and soybean trypsin inhibitor (Sigma) to stop trypsinization, and the remaining tissue pieces were pelleted by centrifugation. Cells were then washed in Krebs-Ringer buffer containing Ca^2+ and Mg^2+ and re-suspended in appropriate Neurobasal^TM medium (Invitrogen, Taastrup, Denmark) with supplements depending on the experiment.
Cerebellar granule neurons CGNs were re-suspended in Neurobasal^TM medium supplemented with 2% (v/v) B27, 0.5% (v/v) glutamax, 100 U/ml penicillin, 100 μg/ml streptomycin, 0.4% (w/v) BSA, and 20 mM HEPES and were seeded in 8-well LabTek Permanox chamber slides (Nunc) at a density of 1 × 10^4 cells/cm^2. Various concentrations of ARTN, artefin, scrambled artefin, or reversed artefin were added to neurons immediately after seeding. For the RET inhibition assay, the inhibitory goat anti-mouse RET antibody (4.1 μg/ml; R&D systems, Abingdon, United Kingdom) or control goat IgG (4.1 μg/ml; Santa Cruz Biotechnology, Dallas, TX, United States) were added to neurons 1 h before stimulation with ARTN (0.042 nM) […]. For the competition assay between growth factor and mimetic peptide, a combination of ARTN (2.1 nM) and artefin (4.2 μM) was added to the cells immediately after seeding. […]
To estimate neurite outgrowth, neurons were fixated 24 h after stimulation and stained with rabbit anti-growth-associated-protein-43 (GAP-43) antibody (Chemicon International, Inc., Temecula, CA, United States) or anti-GFP antibody (for transfection experiment) overnight at 4°C followed by incubation with secondary Alexa-conjugated goat anti-rabbit antibodies (Invitrogen, Taastrup, Denmark). In case of experiments with plasmid transfection, the transfection efficiency was ca. 20% of total cells and the neurite outgrowth was evaluated only in GFP-positive, i.e., transfected, cells. […]
Computer-assisted fluorescent microscopy was performed using a Nikon Diaphot 300 inverted microscope (Nikon) equipped with a Nikon Plan 20× objective and coupled to a video camera (Grundig Electronics, Germany). For each condition in each experiment, including the experiment with transfections, images of approximately 200 cells were recorded in systematic series of fields of view, and neurite outgrowth was quantified using a stereological approach as previously described ([Rønn et al., 2000]). […]

[2] = system: NCAM; cerebellar granule neurons (CGNs); test: Neurite outgrowth in CGNs with NCAM knock down (NCAM shRNA); format: cell-based, Wistar rat; conditions: 24 h, P2-d 8 μg/ml, ARTN 0.21 nM, artefin 1.4 μM
Protocol: as §1
(§2) To evaluate the involvement of NCAM and RET in neurite outgrowth induced by either ARTN or artefin, CGNs (3 × 10^6 per transfection) were transfected with 3 μg DNA using a Nucleofector^TM 2b device and a Rat Neuron Nucleofector Kit (Amaxa, Inc., Gaithersburg, MD, United States). A kinase-deleted dominant negative RET insert was obtained by direct PCR using a commercially available clone (IRAKp961P02132Q; RZPD, Berlin, Germany) encoding full-length mouse RET coding sequence 586–3807 nt. as template. The upper primer […] contained a NheI restriction site and Kozak sequence, and the lower primer […] encoded Streptag II and NotI restriction sites. The dominant negative RET insert and the pcDNA5/FRT expression vector containing the Flp-In system were cut with NheI and NotI restriction enzymes, purified, ligated using the Rapid DNA Ligation Kit (Roche, Basel, Switzerland), and transfected into One Shot TOP10 E. coli (Invitrogen, Taastrup, Denmark). E. coli colonies containing the dominant negative RET insert were identified by PCR, and one insert-positive colony was used for plasmid purification. The identity of the purified plasmid was verified by restriction cutting and sequencing of the insert. For NCAM knock down, we used a pENTR vector containing the shRNA expression cassette for NCAM knock down ([Hansen et al., 2007]). An empty vector was used as a control. To identify transfected neurons, all transfections were performed as co-transfections with 0.5 μg pEGFP-N1, an expression vector encoding the enhanced variant of green fluorescent protein (GFP; Clontech, Palo Alto, CA, United States). Transfected CGNs were seeded in Neurobasal^TM-A medium supplemented with 2% (v/v) B27, 5% (v/v) FCS, and 2 mM Glutamax at a density of 1 × 10^5 cells/cm^2.
(§3) To estimate neurite outgrowth, neurons were fixated 24 h after stimulation and stained with rabbit anti-growth-associated-protein-43 (GAP-43) antibody (Chemicon International, Inc., Temecula, CA, United States) or anti-GFP antibody (for transfection experiment) overnight at 4°C followed by incubation with secondary Alexa-conjugated goat anti-rabbit antibodies (Invitrogen, Taastrup, Denmark). In case of experiments with plasmid transfection, the transfection efficiency was ca. 20% of total cells and the neurite outgrowth was evaluated only in GFP-positive, i.e., transfected, cells. For representative pictures, cells were additionally co-stained with Hoechst 33258.
(§4) Computer-assisted fluorescent microscopy was performed using a Nikon Diaphot 300 inverted microscope (Nikon) equipped with a Nikon Plan 20× objective and coupled to a video camera (Grundig Electronics, Germany). For each condition in each experiment, including the experiment with transfections, images of approximately 200 cells were recorded in systematic series of fields of view, and neurite outgrowth was quantified using a stereological approach as previously described ([Rønn et al., 2000]).
(§5) FIGURE 7 Neuritogenic effect of ARTN and artefin in (A) dominant negative RET or (B) knock down NCAM-expressing CGNs. […]

[3] = system: RET; cerebellar granule neurons (CGNs); test: Neurite outgrowth in CGNs transfected with dominant negative RET (dnRET); format: cell-based, Wistar rat; conditions: 24 h, P2-d 8 μg/ml, ARTN 0.21 nM, artefin 1.4 μM
Protocol: as §1, §2, §3, §4, §5

[4] = system: cerebellar granule neurons (CGNs); test: Survival assay of CGNs induced to undergo apoptosis by potassium withdrawal; format: cell-based, Wistar rat; conditions: 50 ng/ml, 48 h, 5 mM KCl; p < 0.0001; positive control
Protocol: as §1
Cerebellar granule neurons were re-suspended in Neurobasal^TM-A medium supplemented with 2% (v/v) B27 (Invitrogen, Taastrup, Denmark), 0.5% (v/v) glutamax, 100 U/ml penicillin, 100 μg/ml streptomycin, and 40 mM KCl, and seeded at a density of 1 × 10^5 cells/well in 8-well LabTek Permanox chamber slides (Nunc, Roskilde, Denmark) coated with poly-L-lysine (10 μg/ml). To avoid proliferation of non-neuronal cells, cytosine-β-D-arabinofuranoside (Sigma) was added to cells 24 h after plating. CGNs were allowed to differentiate for 7 days in vitro (DIV) in the presence of 40 mM KCl before being induced to undergo apoptosis by changing the medium to one containing only 5 mM KCl (apoptotic medium) ([D’Mello et al., 1993]). At 7 DIV, cells were washed and stimulated with serially diluted ARTN or artefin diluted in the apoptotic medium. Three different controls were included; (1) cells grown in medium containing 40 mM KCl served as a positive control; (2) cells grown in medium containing 5 mM KCl served as a negative control; (3) cells grown in medium containing 5 mM KCl supplemented with 50 ng/ml insulin growth factor-1 (IGF-1) (Life Technology), a known anti-apoptotic factor for CGNs in this setup ([Galli et al., 1995]). After 48 h following the induction of apoptosis, cells were fixated in 4% formaldehyde for 30 min, and nuclear morphology was visualized with Hoechst 33258 staining (Invitrogen, Taastrup, Denmark) (Figure 2A). Images of cells were obtained using a Nikon Diaphot 200 fluorescent microscope equipped with a Nikon Plan 40× objective (Nikon, Tokyo, Japan) and coupled to a black-white video camera. Images of at least 1000 cells/well in different fields of view were analyzed, and the percentage of viable neurons was estimated as the ratio of live cells (non-pyknotic cells with dispersed chromatin) to the total number of neurons.
FIGURE 2 Effect of ARTN and artefin on survival of cerebellar granular neurons (CGNs) induced to undergo apoptosis. CGNs were differentiated for 7 days in the presence of 40 mM KCl before apoptosis was induced by potassium withdrawal. (A) Nuclear morphology of CGNs after Hoechst 33258 staining. […] Scale bar: 100 μm. Cells were grown for 48 h in media, containing 40 mM KCl, apoptotic medium (5 mM KCl) or apoptotic medium supplemented with 50 ng/ml IGF-1 (positive control) (B), serially diluted ARTN (C), or artefin (D). Each experiment was performed in the presence of the three controls (40 mM KCl, 5 mM KCl, and 5 mM KCl plus IGF-1), and the survival effect of the growth factor and the peptide was compared to its own apoptotic control (5 mM KCl). Results from the five experiments are expressed as percentage of 40 mM KCl control set at 100% and presented as mean ± SEM. The anti-apoptotic effect of ARTN and artefin was tested using Student’s paired t-test, where ^∗p < 0.05; ^∗∗p < 0.01; ^∗∗∗p < 0.001; ^∗∗∗∗p < 0.0001.

[5] = system: cerebellar granule neurons (CGNs); test: Neurite outgrowth assay in CGNs; format: cell-based, Wistar rat; conditions: 24 h; ARTN 0.013–2.1 nM; artefin 0.16–37.9 μM; one-way ANOVA
Protocol: as §1
Cerebellar granule neurons CGNs were re-suspended in Neurobasal^TM medium supplemented with 2% (v/v) B27, 0.5% (v/v) glutamax, 100 U/ml penicillin, 100 μg/ml streptomycin, 0.4% (w/v) BSA, and 20 mM HEPES and were seeded in 8-well LabTek Permanox chamber slides (Nunc) at a density of 1 × 10^4 cells/cm^2. Various concentrations of ARTN, artefin, scrambled artefin, or reversed artefin were added to neurons immediately after seeding. For the RET inhibition assay, the inhibitory goat anti-mouse RET antibody (4.1 μg/ml; R&D systems, Abingdon, United Kingdom) or control goat IgG (4.1 μg/ml; Santa Cruz Biotechnology, Dallas, TX, United States) were added to neurons 1 h before stimulation with ARTN (0.042 nM) […]. For the competition assay between growth factor and mimetic peptide, a combination of ARTN (2.1 nM) and artefin (4.2 μM) was added to the cells immediately after seeding. To inhibit Fibroblast growth factor receptor (FGFR) pharmacologically, inhibitor of FGFR, SU5402 (Sigma), was added to the growth medium in serial dilutions of 20, 40, and 80 μM immediately after plating of CGNs, followed by addition of either P2-d (8 μg/ml), ARTN (0.21 nM), or artefin (1.4 μM) 1 h after the plating.
as §3, §4
FIGURE 3 Neurite outgrowth induced by ARTN (A), artefin-dendrimer (B), and artefin-monomer (C) in CGNs. Cells were stimulated with ARTN (0.013, 0.042, 0.13, 0.42, and 2.1 nM) or artefin (0.16, 0.47, 1.4, 4.2, 12.6, and 37.9 μM) for 24 h. For the unstimulated control, the absolute length of neurites was 11.47 ± 1.5 μm. Results from four independent experiments are expressed as percentage of untreated control set to 100% and presented as mean ± SEM. The mean neurite outgrowth lengths were compared using one-way ANOVA for repeated measurements. The effect of individual concentrations of ARTN and artefin was compared to control using one-way ANOVA with Dunnett’s post-hoc test, ^∗p < 0.05; ^∗∗p < 0.01. […]

[6] = target: T1, recombinant human GFRα3/Fc (human, UniProt O60609 32-374); test: SPR; Biacore 2000, 25°C, HBS-EP (10 mM HEPES pH 7.4, 150 mM NaCl, 3 mM EDTA, 0.005% P20); ARTN (~2300 RU) or artefin (~1600 RU) amine-coupled on a CM4 chip; serially diluted GFRα3/Fc or NCAM Ig1–3 injected at 20 μl/min; 1:1 interaction model or steady-state affinity analysis; conditions: both partners purified
T1 construct: GDNF family receptor alpha-3 (GFRα3), human; Commercial Fc chimera; also called GFL receptor α3; source: bought: R&D Systems
T1 sequence (looked up): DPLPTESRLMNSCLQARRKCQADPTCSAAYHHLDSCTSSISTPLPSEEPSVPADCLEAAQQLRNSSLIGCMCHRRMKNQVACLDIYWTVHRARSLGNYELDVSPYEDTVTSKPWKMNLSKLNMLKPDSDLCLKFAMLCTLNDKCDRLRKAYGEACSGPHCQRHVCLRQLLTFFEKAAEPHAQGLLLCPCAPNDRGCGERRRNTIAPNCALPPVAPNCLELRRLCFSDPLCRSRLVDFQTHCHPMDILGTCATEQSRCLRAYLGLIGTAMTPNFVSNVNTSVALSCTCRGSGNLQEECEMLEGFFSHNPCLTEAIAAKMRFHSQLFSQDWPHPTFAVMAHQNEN

[7] = target: T2, recombinant rat NCAM Ig1–3 (rat, UniProt P13596 20-308); test: as above; conditions: both partners purified
T2 construct: neural cell adhesion molecule (NCAM), rat, Ig1–3 domains; also called NCAM Ig1–3 domain; source: recombinant, produced as described previously (Soroka et al., 2003)
T2 sequence (P13596 20-308): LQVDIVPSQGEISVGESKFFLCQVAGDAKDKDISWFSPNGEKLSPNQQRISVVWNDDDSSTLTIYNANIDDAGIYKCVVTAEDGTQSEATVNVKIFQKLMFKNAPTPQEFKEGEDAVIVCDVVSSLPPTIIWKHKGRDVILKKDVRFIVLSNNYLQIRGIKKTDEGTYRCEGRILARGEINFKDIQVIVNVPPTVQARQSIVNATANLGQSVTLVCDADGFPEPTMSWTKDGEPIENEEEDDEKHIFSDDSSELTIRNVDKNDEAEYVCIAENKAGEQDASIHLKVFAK

Molecule: GRILARGEINFK [P2-d, reference compound]
neurite outgrowth with 80 μM FGFR inhibitor ([1]; P2-d 8 μg/ml with 80 μM inhibitor): significantly attenuated
neurite outgrowth in the absence of SU5402 ([1]; P2-d 8 μg/ml): promoted neurite outgrowth in the absence of SU5402 (p < 0.01)
neurite outgrowth in NCAM knock down neurons ([2]; NCAM shRNA): eliminated in neurons transfected with NCAM shRNA (p < 0.01
neurite outgrowth in mock-transfected neurons ([2]; empty vector, versus control): increased neurite outgrowth in mock-transfected neurons (p < 0.05)
neurite outgrowth in dnRET-transfected neurons ([3]; dnRET): significantly increased the level of neurite outgrowth in mock-transfected neurons as well as in neurons transfected with the vector encoding dnRET (p < 0.05
neurite outgrowth in mock-transfected neurons ([3]; empty vector, versus control): significantly increased the level of neurite outgrowth in mock-transfected neurons

Molecule: IGF-1: insulin growth factor-1 (Life Technology), a known anti-apoptotic factor for CGNs [reference compound]
neuronal survival (rescue from apoptosis by potassium withdrawal) [4]: significantly increased the number of CGNs rescued from the apoptosis

Molecule: RSPHDLSLASLLGAG [artefin in monomer form]
overall neuritogenic effect [5]: did not demonstrate any significant neurite outgrowth

Kd [6]: 2.9 nM
Kd [7]: 2800 nM
B1: artefin, ARTN-derived peptide synthesized as a tetramer (dendrimer) on a lysine backbone (peptide)
peptide: RSPHDLSLASLLGAG
modifications: also: tetramer: four monomers coupled to a lysine backbone
notes: amino acids 166-180 of human ARTN (UniProt D3DPX9), heel region; also called artefin-dendrimer; artefin-d; source: synthetic peptide (Schafer-N, Copenhagen; solid-phase Fmoc chemistry)
